Biological target: T1, integrin αvβ3 (Homo sapiens, UniProt P05106+P06756)
T1 construct: from tissue; host or cells: human placenta
Assay: Integrin αvβ3 assay (competition with vitronectin for binding to solid-phase integrin αvβ3)
Conditions: integrin αvβ3 from human placenta, ranking in words only
Experimental: Integrin αvβ3 antagonists were identified and assessed using a test system based on competition between the natural integrin αvβ3 ligand vitronectin and the test substance for binding to integrin αvβ3 bound to a solid phase. […]
coat microtiter plates with 250 ng/ml integrin-αvβ3 in 0.05 M NaHCO3 pH 9.2; 0.1 ml/well; […]
saturate with 1% milk powder/assay buffer; 0.3 ml/well; 0.5 h/RT wash 3× with 0.05% Tween 20/assay buffer
Test substance in 0.1% milk powder/assay buffer, 50 μl/well+0 μg/ml or 2 μg/ml human vitronectin (Boehringer Ingelheim T007) in 0.1% milk powder/assay buffer, 50 μl/well; 1 h/RT […]
1 μg/ml anti human vitronectin antibody coupled to peroxidase (Kordia SAVN-APHRP) in 0.1%: milk powder/assay buffer; 0.1 ml/well; 1 h/RT […]
0.1 ml/well peroxidase substrate […]
stop reaction with 0.1 ml/well 2 M H2SO4 […]
measure the absorption at 450 nm
Integrin αvβ3: human placenta is solubilized with Nonidet, and integrin αvβ3 is affinity-purified on a GRGDSPK matrix (elution with EDTA). Contamination by integrin αIIbβ3 and human serum albumin, as well as the detergent and EDTA, are removed by anion exchange chromatography.
Assay buffer: 50 mM tris pH 7.5; 100 mM NaCl; 1 mM CaCl2; 1 mM MgCl2; 10 ΞM MnCl2 […]
Peroxidase substrate: mix 0.1 ml of TMB solution (42 mM TMB In DMSO) and 10 ml of substrate buffer (0.1 M Na acetate pH 4.9) and then add 14.7 pi of 3% H2O2. […]

IC50 values (concentration of the ligand at which 50% of the ligand is displaced): best result
SMILES: Cc1cn(CC(Cc2ccc3ccccc3c2)C(=O)O)c(=O)nc1N1CCC(Nc2nc3ccccc3[nH]2)CC1.O=C(O)C(F)(F)F (stereo not shown) [Compound I, 2-[(1-{1-[2-Carboxy-3-(2-naphthyl)propyl]-5-methyl-2-oxo-1,2-dihydropyrimidin-4-yl)-piperidin-4-yl)amino]-1H-benzimidazol-1-ium trifluoroacetate]
